{
  "source": "patent US20220040319A1",
  "about": "“METHODS OF TREATING OCULAR CANCER USING ANTI-MET ANTIBODIES AND BISPECIFIC ANTIGEN BINDING MOLECULES THAT BIND MET” (Regeneron Pharmaceuticals, Inc., priority 2019, published 2022)",
  "key": {"[1]": {"system": "MET pathway in NCI-H596 cells", "assay": "MET and ERK phosphorylation in NCI-H596 cells, immunoblot", "assay_type": "cell-based, human", "details": "fold change relative to control, HGF 50 ng/ml, antibody 10 μg/ml", "protocol": "250,000 NCI-H596 cells were seeded in a 12 well plate and cultured in RPMI Media supplemented with 10% FBS. […] The cells were subsequently incubated in 5% CO2 at 37° C. After 0, 2, 6 or 18 hours, cell lysates were prepared, protein content was normalized and immunoblot analysis was performed. MET phosphorylation and ERK phosphorylation were quantified with the ImageJ image processing program (T. Collins, BioTechniques 43: S25-S30, 2007). Phosphorylation levels were normalized to the Tubulin loading control and are expressed as fold change relative to control treatment."}, "NCI-H596 cells": {"system": "NCI-H596 cells", "assay": "NCI-H596 growth in soft agar, AlamarBlue, two weeks", "assay_type": "cell-based, human", "details": "antibody 5 μg/ml (combination 2.5 μg/ml each), HGF 100 ng/mL", "protocol": "The effect of a MET×MET bispecific antibody on the growth of human non-small cell lung cancer (NSCLC) cells (NCI-H596) was assessed in vitro. 10,000 NCI-H596 lung adenosquamous carcinoma cells (Nair et al., J. Nat'l. Cancer Inst. 86(5): 378-383, 1994) were seeded in 96 well plates on a layer of 0.66% agar in media supplemented with 1% fetal bovine serum (FBS). The cells were cultured in RPMI 1640 media supplemented with 1% FBS with 0.3% agarose. […] The cells were subsequently incubated with 5% CO2 at 37° C. After two weeks, relative cell growth was determined by measuring the reduction of the indicator dye, ALAMAR BLUE® (Thermo Fischer Scientific, Waltham, Mass.), to its highly fluorescent form in a SPECTRAMAX® M3 plate reader (Molecular Devices, Sunnyvale, Calif.). Increasing fluorescence correlates with cell growth. Table 18 and FIG. 14 depict the relative NCI-H596 cell growth for each antibody treatment normalized to control (no treatment) NCI-H596 cell growth."}},
  "data": [
    {"substance": "HGF: hepatocyte growth factor, MET agonist ligand [reference compound]", "values": [
      {"measurement": "Phospho-ERK (mean ± SD)", "setting": "[1]; 2 hours", "value": "16.7 ± 1.6"},
      {"measurement": "Phospho-MET (mean ± SD)", "setting": "[1]; 2 hours", "value": "202.3 ± 38.7"},
      {"measurement": "Phospho-ERK (mean ± SD)", "setting": "[1]; 6 hours", "value": "12.4 ± 3.9"},
      {"measurement": "Phospho-MET (mean ± SD)", "setting": "[1]; 6 hours", "value": "38.9 ± 4.9"},
      {"measurement": "Phospho-ERK (mean ± SD)", "setting": "[1]; 18 hours", "value": "12.4 ± 0.9"},
      {"measurement": "Phospho-MET (mean ± SD)", "setting": "[1]; 18 hours", "value": "59.2 ± 24.4"},
      {"measurement": "Relative Cell Growth (n = 3)", "setting": "NCI-H596 cells", "value": 7.877}
    ]}
  ]
}
